The target in this assay is A3G (APOBEC3G) (Homo sapiens, UniProt Q9HC16). It is filed as biochemical. The note with it: 1 μM peptide (Fig. 3B).
Chain of A3G (APOBEC3G) (Q9HC16 whole entry): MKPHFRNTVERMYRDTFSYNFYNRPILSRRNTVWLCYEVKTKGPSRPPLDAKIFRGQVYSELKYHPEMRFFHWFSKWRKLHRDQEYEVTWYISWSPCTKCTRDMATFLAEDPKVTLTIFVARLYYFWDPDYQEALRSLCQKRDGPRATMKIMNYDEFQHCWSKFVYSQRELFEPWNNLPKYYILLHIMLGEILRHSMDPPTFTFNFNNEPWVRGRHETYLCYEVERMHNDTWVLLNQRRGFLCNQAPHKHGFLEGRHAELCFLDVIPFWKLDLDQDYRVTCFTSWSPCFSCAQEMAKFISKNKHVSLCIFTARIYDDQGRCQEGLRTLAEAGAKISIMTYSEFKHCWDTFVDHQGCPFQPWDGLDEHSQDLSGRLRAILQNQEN
For DCFSESAIRNAILGH [Vif113-127], the “inhibition of A3G deaminase activity (peptide screen)” value (“inhibition of A3G deaminase activity” for short) was “inhibited the A3G deaminase activity”.

As to DLADQLIHLYYFDCF [Vif101-115], the “inhibition of A3G deaminase activity” value is reported as “inhibited the A3G deaminase activity”.

GWFYRHHYESTHPRI [Vif37-51]: the “inhibition of A3G deaminase activity” value is “inhibited the A3G deaminase activity”.

Consider IVWQVDRMRIRTWKS [Vif9-23], for which the “inhibition of A3G deaminase activity” value is “inhibited the A3G deaminase activity”.

Source of the values: publication PMC3139112 (Journal of molecular biology, 2011).
